In patent US11130960B2, “Methods for conferring or enhancing herbicide resistance on plants and/or alga with protoporphyrinogen oxidase variants” (FARM HANNONG CO., LTD., priority 2014, dated 2021):

Experiments:
CyPPO8 transformant = assay: Herbicide spray test on Arabidopsis thaliana T2 plants; assay type: in vivo; details: 2-3 ml of 0.5 μM Tiafenacil, 1 μM Saflufenacil, or 3 μM Fomesafen per plant
Protocol: (§1) To examine whether herbicide resistance traits are maintained in the next generations of plants, respective T2 generation plants of Arabidopsis thaliana which were transformed with CyPPO2, CyPPO4 and CyPPO8 genes were subjected to an herbicide resistance test. 2-3 ml of 0.5 μM Tiafenacil, 1 μM Saflufenacil, or 3 μM Fomesafen was sprayed onto each Arabidopsis thaliana plant grown for about 4 weeks.

CyPPO2 transformant = assay: as above; assay type: in vivo; details: 2-3 ml of 0.5 μM Tiafenacil, 1 μM Saflufenacil, or 3 μM Fomesafen per plant
Protocol: as §1

CyPPO4 transformant = assay: as above; assay type: in vivo; details: 2-3 ml of 0.5 μM Tiafenacil, 1 μM Saflufenacil, or 3 μM Fomesafen per plant
Protocol: as §1

CyPPO2 = assay: Growth of transformed BT3(ΔPPO) E. coli in LB liquid medium (OD600); assay type: cell-based, Oscillatoria nigro-viridis PCC 7112; details: 37° C., OD600 over culture time
Protocol: (§2) In Example 3, herbicide resistance of respective BT3(ΔPPO) strains transformed with the wild-type AtPPO1, mutant AtPPO1, CyPPO2, CyPPO4 or CyPPO8 gene was investigated on agar media containing different herbicides, and in this Example, herbicide resistance of the strains was investigated in LB liquid media containing different herbicides.
(§3) HV-50 autoclave from Hirayama, HS2100A electronic scale from Hansung Instrument, CB-30V clean bench from Jeio Tech, JSI-200CL incubator from JSR, MQ-200 photometer from Apogee, and 1210 type UV-visible spectrophotometer from Thermo Fisher Scientific were used. The autoclave was used under conditions of 121° C. and 15 minutes, and the incubator was used at 37° C. with lighting of 160˜200 μmol m^−2s^−1 for a culture time of 13.5 hours. The UV-visible spectrophotometer was used at 600 nm.
(§4) Tiafenacil (M.W. 511.87 g/mol), Saflufenacil (M.W. 500.85 g/mol), and Fomesafen (M.W. 438.76 g/mol) used in the experiment were purchased from Dongbu Farm Hannong Co., Ltd, Sigma, and Sigma, respectively. These drugs were prepared at 200 mM concentration in 100% acetone, and stored at −20° C., respectively. Luria-Bertani(LB) medium (10 g/L of Bacto-Tryptone, 5 g/L of Yeast extract, 10 g/L of sodium chloride) and an antibiotic Chloramphenicol (Duchefa) were used.
(§5) For seed culture of E. coli transformed with respective genes, single colonies thereof were cultured in 3 ml of LB broth containing chloramphenicol for 12 hours, and they were diluted with LB broth to absorbance (OD600) of 1.5. Next, chloramphenicol and 500 μl of the seed culture of the transformed E. coli were added to 250 ml of LB liquid medium, and 50 ml of the culture was added to each 250 ml-flask. Each flask was treated with varying concentrations (0, 10 μM, 50 μM, 100 μM) of herbicide stocks (Tiafenacil, Saflufenacil, Fomesafen), and then incubated at 37° C. and 200 rpm. Absorbance (OD600) was measured using a spectrophotometer every 1.5 hours. The experiment was repeated three times, and mean values thereof were given in a graph. Error bars represent standard error of three repeats.

wild-type Col-0 plants = assay: Herbicide spray test on Arabidopsis thaliana plants; assay type: in vivo; details: for outcome of plants at 7 days after spraying: 2-3 ml of 0.5 μM Tiafenacil, 1 μM Saflufenacil, or 3 μM Fomesafen per plant grown about 4 weeks
Protocol: To examine resistance of the transplanted T1 plants against PPO-based herbicides, the plants were grown for about 3-4 weeks, and then treated with herbicides prior to flower stalk elongation. […] Therefore, 1 μM tiafenacil was evenly applied at an amount proper for the number of plant individuals. After 7 days, resistance of the transformants against PPO-based herbicides was examined.
as §1

CyPPO4 = assay: Growth of transformed BT3(ΔPPO) E. coli in LB liquid medium (OD600); assay type: cell-based, Lyngbya sp. PCC 8106; details: 37° C., OD600 over culture time
Protocol: as §2, §3, §4, §5

[1] = system: mutant AtPPO1 transformant; assay: Herbicide spray test on Arabidopsis thaliana T2 plants; assay type: in vivo; details: 2-3 ml of 0.5 μM Tiafenacil, 1 μM Saflufenacil, or 3 μM Fomesafen per plant
wild-type AtPPO1 = molecular target: T1, wild-type AtPPO1 (Arabidopsis thaliana, UniProt P55826); assay: Growth of transformed BT3(ΔPPO) E. coli in LB liquid medium (OD600); assay type: cell-based; details: 37° C., OD600 over culture time
T1 construct: expressed in transfected cells; host or cells: E. coli BT3(ΔPPO), pACBB vector
T1 sequence (P55826 35-537): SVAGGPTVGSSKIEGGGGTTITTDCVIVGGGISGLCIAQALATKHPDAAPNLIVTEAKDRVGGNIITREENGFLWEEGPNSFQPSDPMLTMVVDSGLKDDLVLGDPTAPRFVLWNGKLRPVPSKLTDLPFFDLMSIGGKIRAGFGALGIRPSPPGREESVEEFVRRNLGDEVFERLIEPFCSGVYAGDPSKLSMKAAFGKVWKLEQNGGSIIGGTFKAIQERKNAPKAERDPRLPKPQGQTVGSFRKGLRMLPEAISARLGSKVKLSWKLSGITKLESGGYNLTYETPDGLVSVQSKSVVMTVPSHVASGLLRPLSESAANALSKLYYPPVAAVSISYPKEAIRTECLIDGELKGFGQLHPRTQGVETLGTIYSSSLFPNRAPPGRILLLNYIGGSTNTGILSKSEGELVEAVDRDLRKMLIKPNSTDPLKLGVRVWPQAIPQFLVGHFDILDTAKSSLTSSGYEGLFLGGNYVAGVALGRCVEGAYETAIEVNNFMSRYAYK
Protocol: as §2, §3, §4, §5

Mutant AtPPO1 = molecular target: T2, Mutant AtPPO1 (Arabidopsis thaliana, UniProt P55826, S305L/Y426M); assay: as above; assay type: cell-based; details: 37° C., OD600 over culture time
T2 construct: expressed in transfected cells; host or cells: E. coli BT3(ΔPPO), pACBB vector
Protocol: as §2, §3, §4, §5

T2 sequence (P55826 35-537 S305L/Y426M): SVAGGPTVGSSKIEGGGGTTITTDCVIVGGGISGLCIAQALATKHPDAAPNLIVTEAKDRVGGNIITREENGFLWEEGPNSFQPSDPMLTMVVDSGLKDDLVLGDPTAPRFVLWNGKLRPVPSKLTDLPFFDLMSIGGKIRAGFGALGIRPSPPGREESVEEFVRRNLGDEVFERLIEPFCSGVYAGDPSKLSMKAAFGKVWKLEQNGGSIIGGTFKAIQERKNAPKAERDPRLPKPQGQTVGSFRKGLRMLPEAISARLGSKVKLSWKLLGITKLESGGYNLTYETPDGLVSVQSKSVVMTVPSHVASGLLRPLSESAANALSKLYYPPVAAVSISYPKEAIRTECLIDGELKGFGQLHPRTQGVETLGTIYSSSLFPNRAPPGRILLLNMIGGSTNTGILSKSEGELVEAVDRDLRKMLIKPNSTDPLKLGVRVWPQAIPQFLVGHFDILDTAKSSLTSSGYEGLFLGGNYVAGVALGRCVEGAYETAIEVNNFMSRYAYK

SMILES	outcome of plants at 7 days after spraying (CyPPO8 transformant)	outcome of plants at 7 days after spraying (CyPPO2 transformant)	outcome of plants at 7 days after spraying (CyPPO4 transformant)	concentration by which the strain normally grew (CyPPO2) [µM]	outcome of plants at 7 days after spraying (wild-type Col-0 plants)	concentration by which the strain normally grew (CyPPO4) [µM]	outcome of plants at 7 days after spraying [1]	concentration at which the strain hardly grew (wild-type AtPPO1) [µM]	concentration by which the strain normally grew (Mutant AtPPO1) [µM]	concentration at which growth inhibition began (wild-type AtPPO1) [µM]	outcome of plants after herbicide treatment (wild-type Col-0 plants; 2-3 ml of 1 μM tiafenacil (+0.05% Silwet L-77) per plant)	concentration at which growth inhibition was observed (Mutant AtPPO1) [µM]	concentration at which the strain grew (Mutant AtPPO1) [µM]
CC(C)N(C)S(=O)(=O)NC(=O)c1cc(-n2c(=O)cc(C(F)(F)F)n(C)c2=O)c(F)cc1Cl [Saflufenacil]	continued to grow without damage	continued to grow without damage	continued to grow without damage	≤ 100	killed	≤ 100	continued to grow without damage	≥ 10	≤ 100				
CS(=O)(=O)NC(=O)c1cc(Oc2ccc(C(F)(F)F)cc2Cl)ccc1[N+](=O)[O-] [Fomesafen]	continued to grow without damage	continued to grow without damage	continued to grow without damage	≤ 100	killed	≤ 100	continued to grow without damage		≤ 100	50			
COC(=O)CCNC(=O)C(C)Sc1cc(-n2c(=O)cc(C(F)(F)F)n(C)c2=O)c(F)cc1Cl (centres unmarked) [Tiafenacil]	continued to grow without damage	continued to grow without damage	continued to grow without damage	≤ 100	killed	≤ 100	continued to grow without damage	≥ 10			killed	≥ 50	10
